The experiment concerns the target T1, Progesterone receptor (Rattus norvegicus, UniProt Q63449).
T1 sequence (Q63449 whole entry): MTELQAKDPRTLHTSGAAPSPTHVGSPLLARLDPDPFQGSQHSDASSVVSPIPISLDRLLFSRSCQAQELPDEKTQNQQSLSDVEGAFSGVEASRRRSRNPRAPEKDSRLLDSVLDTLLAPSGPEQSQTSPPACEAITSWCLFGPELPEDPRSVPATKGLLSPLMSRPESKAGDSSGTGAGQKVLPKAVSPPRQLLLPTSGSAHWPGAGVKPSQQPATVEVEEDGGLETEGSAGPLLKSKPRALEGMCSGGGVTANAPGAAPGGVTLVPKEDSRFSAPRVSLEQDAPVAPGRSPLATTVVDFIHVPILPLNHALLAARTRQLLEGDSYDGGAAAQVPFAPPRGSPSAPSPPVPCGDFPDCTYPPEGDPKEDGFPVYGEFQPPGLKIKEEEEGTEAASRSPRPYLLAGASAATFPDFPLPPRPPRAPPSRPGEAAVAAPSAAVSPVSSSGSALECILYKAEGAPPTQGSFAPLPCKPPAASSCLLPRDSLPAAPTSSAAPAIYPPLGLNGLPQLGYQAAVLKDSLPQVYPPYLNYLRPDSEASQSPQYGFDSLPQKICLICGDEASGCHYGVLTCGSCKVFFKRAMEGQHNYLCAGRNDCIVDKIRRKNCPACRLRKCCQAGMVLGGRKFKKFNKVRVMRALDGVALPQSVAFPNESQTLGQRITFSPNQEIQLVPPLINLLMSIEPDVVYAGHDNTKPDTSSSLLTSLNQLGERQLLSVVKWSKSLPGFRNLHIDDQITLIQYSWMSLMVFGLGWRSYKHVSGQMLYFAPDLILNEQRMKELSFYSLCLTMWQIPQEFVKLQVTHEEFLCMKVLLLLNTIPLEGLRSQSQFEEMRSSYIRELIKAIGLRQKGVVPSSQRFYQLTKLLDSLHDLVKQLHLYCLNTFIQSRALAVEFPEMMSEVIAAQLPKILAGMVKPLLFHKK
Nature of the experiment: Inhibitory progestational activity on oral administration in uterine C3 model.
For the molecule `N#Cc1cccc(-c2ccc3c(c2)C2(CCCCC2)C(=S)N3)c1`, 942 nM corresponded to half-maximal inhibition (IC50). With `N#Cc1ccc(-c2ccc3c(c2)C2(CCCCC2)C(=S)N3)s1`, the IC50 (commonly the midpoint of a concentration-inhibition curve) stood at 92.5 nM. With `S=C1Nc2ccc(-c3cccc(Cl)c3)cc2C12CCCCC2` the figure was 1120 nM. With `N#Cc1cc(F)cc(-c2ccc3c(c2)C2(CCCCC2)C(S)=N3)c1` [3-fluoro-5-(2'-thioxo-1',2'-dihydrospiro[cyclohexane-1,3'-indol]-5'-yl)benzonitrile] the figure was 7.43 nM; with `CC(=O)O[C@]1(C(C)=O)CC[C@H]2[C@@H]3C[C@H](C)C4=CC(=O)CC[C@]4(C)[C@H]3CC[C@@]21C` [17-Acetoxy-6alpha-methylprogesterone], 67.3 nM.
